The values that follow come from patent US11166461B2, “Methods of controlling or preventing infestation of soybean plants by phytopathogenic microorganisms” (SYNGENTA PARTICIPATIONS AG, priority 2017, dated 2021).

Assay [1] has as its system Fusarium virguliforme. Briefly: Seed treatments on soybean cv. Toliman infected with Fusarium virguliforme (growth chamber pot test). Particulars: 29 DAS; for % Disease severity: SDS index normalized to 100 for untreated infected control; for % Infected plants: soybean cv. Toliman. In kind it is in vivo. As to the method: Effect of Different Seed Treatments on Soybean Cv. Toliman Infected with Fusarium virguliforme:
Fusarium virguliforme/Soybean
5×5 soybean seeds cv. Toliman were sown into plastic pots. A mixture of 50% vol. sand and 50% vol. sterilized field soil was used as substrate. A layer of F. virguliforme infected millet seeds was placed below the soybean seeds. The test was kept in a growth chamber at 25° C. with 14 h artificial light; plants were irrigated up to field capacity. For the last five cultivation days, plants were kept at 18° C. The number of infected plants was counted 29 Days After Sowing (DAS).
Disease assessment was done visually 29 DAS, by classifying the plants according to a disease severity scale for SDS modified from Scandiani et al. (2011)* and J. Bond using classes from 0 to 4. The number of plants in each class were assessed. This allows calculating an “SDS Index” by multiplying the number of plants in each class with the disease severity (0, 1, 2, 3 or 4) and adding the products for all classes. SDS Index=n1×0+n2×1+n3×2+n4×3+n5×4. The SDS index is normalized to give an index of 100 for the untreated, infected control (UTCINF) and by calculating the normalized index for all treatments relative to the UTCINF. Shoot dry weight and shoot size was determined 29 DAS. • *Scandiani M., Ruberti D., Giorda L., Pioli R., Luque A., Bottai B., Ivancovich J., Aoki T., & O'Donnell K.: Comparison of inoculation methods for characterizing relative aggressiveness of two soybean sudden-death syndrome pathogens, Fusarium virguliforme and F. tucumaniae. Tropical Plant Pathology, vol. 36, 3, 133-140, 2011 Effect of Different Seed Treatments in the Field Against Sudden Death Syndrome (SDS) Caused by Fusarium virguliforme

Assay [2] deals with Fusarium virguliforme. Briefly: Seed treatments in the field against Sudden Death Syndrome (SDS) caused by Fusarium virguliforme, soybean field trial Clinton, Ill. Format: in vivo. The following applies: seed treatment 0.15 mg ai/seed plus base treatment; for % efficacy based on disease incidence / % disease incidence: 107 days after planting; for % efficacy based on disease incidence: 100 − (100/(untreated/treated)); for % disease incidence: infected plants per plot; for Yield (bushel/acre) / % yield increase: 150 days after planting; for Yield (bushel/acre): full plot harvest; for % yield increase: versus untreated. The method, then:
Disease assessment was done visually 29 DAS, by classifying the plants according to a disease severity scale for SDS modified from […] et al. (2011)* and J. Bond using classes from 0 to 4. The number of plants in each class were assessed. […] SDS Index=n1×0+n2×1+n3×2+n4×3+n5×4. The SDS index is normalized to give an index of 100 for the untreated, infected control ([…]) and by calculating the normalized index for all treatments relative to the […]. Shoot dry weight and shoot size was determined 29 […]., Ruberti D., Giorda L., Pioli R., Luque […]., Aoki T., & O'Donnell K.: Comparison of inoculation methods for characterizing relative aggressiveness of two soybean sudden-death syndrome pathogens, Fusarium virguliforme and F. tucumaniae. Tropical Plant Pathology, vol. 36, 3, 133-140, 2011 Effect of Different Seed Treatments in the Field Against Sudden Death Syndrome (SDS) Caused by Fusarium virguliforme A soybean field trial was carried out in Clinton, Ill., USA. This site had historically SDS occurrence reported. […] The disease occurred end of August and an assessment on disease incidence (counting of infected plants) was done Sep. 15, 2017. The yield of the grain data has been taken at the end of the season. [table] [table] [table]

In the case of `O=C(NC1CCC1c1ccc(Cl)cc1Cl)c1cccnc1C(F)(F)F` (stereo not shown) [Compound 1], in the assay on Fusarium virguliforme [1] (seed treatment 10 g ai/100 kg), the “Shoot dry weight” value worked out at 3.57 g, the “Shoot length in mm” value stood at 505 mm, the “% Disease severity” value stood at 17% and the “% Infected plants” value was found to be 28%. Besides, in the assay with Fusarium virguliforme [1] (seed treatment 20 g ai/100 kg), the “Shoot dry weight” value was 4.16 g, the “Shoot length in mm” value was determined as 587 mm, the “% Disease severity” value is on record as 0% and the “% Infected plants” value stood at 0%. In addition, in the assay on Fusarium virguliforme [2], the “yield increase over the untreated check” value turned out to be 8.11 bushels per acre, the “% efficacy based on disease incidence” value turned out to be 79.72%, the “% disease incidence” value was 12.17 B % and the “Yield (bushel/acre)” value amounted to 79.15 A bushel/acre. Moreover, the “% yield increase” value in the assay on Fusarium virguliforme [2] was determined as 11.42%.

For the molecule `O=C(NCCc1ncc(C(F)(F)F)cc1Cl)c1ccccc1C(F)(F)F` [Fluopyram, reference compound], in the assay with Fusarium virguliforme [2], the “yield increase (in words)” value is listed as “did not increase the yield”, the “% efficacy based on disease incidence” value is on record as 58.33%, the “% disease incidence” value is 25.00 B % and the “Yield (bushel/acre)” value came out at 68.38 A bushel/acre. The “% yield increase” value in the assay with Fusarium virguliforme [2] is −3.74%.

As for `O=C(NC1CCC1c1ccc(F)cc1Cl)c1ncccc1C(F)(F)F` (stereo not shown) [Compound 4], in the assay on Fusarium virguliforme [1] (seed treatment 10 g ai/100 kg), the “Shoot dry weight” value was determined as 3.89 g, the “Shoot length in mm” value was found to be 541 mm, the “% Disease severity” value worked out at 5% and the “% Infected plants” value is 8%. Besides, in the assay with Fusarium virguliforme [1] (seed treatment 20 g ai/100 kg), the “Shoot dry weight” value is given as 3.77 g, the “Shoot length in mm” value is listed as 526 mm, the “% Disease severity” value amounted to 5% and the “% Infected plants” value came to 8%.

In the case of `O=C(NC1CCC1c1ccc(F)cc1Cl)c1cccnc1C(F)(F)F` (stereo not shown) [Compound 7], in the assay on Fusarium virguliforme [1] (seed treatment 10 g ai/100 kg), the “Shoot dry weight” value is 4.09 g, the “Shoot length in mm” value is 565 mm, the “% Disease severity” value is 1% and the “% Infected plants” value is 4%. For the same molecule, in the assay with Fusarium virguliforme [1] (seed treatment 20 g ai/100 kg), the “Shoot dry weight” value was found to be 4.01 g, the “Shoot length in mm” value is 530 mm, the “% Disease severity” value was found to be 0% and the “% Infected plants” value is recorded as 0%.
